For this test, the target named is T1, activated JNK3 (Homo sapiens, UniProt P53779).
T1 construct: One such construct encodes amino acid residues Ser40-Glu402 of JNK3α1 and is preceded by Met and Gly residues; Met-Gly dipeptide (initiator Met plus Gly added for the NcoI site) (N); made in house; host or cells: E. coli BL21 (DE3)
Nature of the test: JNK inhibition assay (spectrophotometric coupled-enzyme assay). The test is classed as biochemical. To be noted: activated JNK3 10 nM, 10 μM ATP, 30° C.; read-out: JNK3 Activity (Ki class A-C). The text has this:
A BLAST search of the EST database using the published JNK3α1 cDNA as a query identified an EST clone (#632588) that contained the entire coding sequence for human JNK3α1. Polymerase chain reactions (PCR) using pfu polymerase (Strategene) were used to introduce restriction sites into the cDNA for cloning into the pET-15B expression vector at the NcoI and BamHI sites. The protein was expressed in E. coli. Due to the poor solubility of the expressed full-length protein (Met 1-Gln 422), an N-terminally truncated protein starting at Ser residue at position 40 (Ser 40) was produced. This truncation corresponds to Ser 2 of JNK1 and JNK2 proteins, and is preceded by a methionine (initiation) and a glycine residue. The glycine residue was added in order to introduce an NcoI site for cloning into the expression vector. In addition, systematic C-terminal truncations were performed by PCR to identify a construct that give rise to diffraction-quality crystals. One such construct encodes amino acid residues Ser40-Glu402 of JNK3α1 and is preceded by Met and Gly residues.
The construct was prepared by PCR using deoxyoligonucleotides: 5′ […] 3′ (forward primer with initiation codon underlined)(SEQ ID NO:1) and 5′ […] 3′ (reverse primer with stop codon underlined)(SEQ ID NO:2) as primers and was confirmed by DNA sequencing.
E.coli strain BL21 (DE3) (Novagen) was transformed with the JNK3 expression construct and grown at 30° C. in LB supplemented with 100 μg/ml carbenicillin in shaker flasks until the cells were in log phase (OD600˜0.8). Isopropylthio-β-D-[…] (IPTG) was added to a final concentration of 0.8 mM and the cells were harvested 2 hours later by centrifugation.
E. coli cell paste containing JNK3 was resuspended in 10 volumes/g lysis buffer (50 mM HEPES, pH 7.2, containing 10% glycerol (v/v), 100 mM NaCl, 2 mM DTT, 0.1 mM PMSF, 2 μg/ml Pepstatin, lug/ml each of E-64 and Leupeptin). Cells were lysed on ice using a microfluidizer and centrifuged at 100,000×g for 30 min at 4° C. The 100,000×g supernatant was diluted 1:5 with Buffer A (20 mM HEPES, pH 7.0, 10% glycerol (v/v), 2 mM DTT) and purified by SP-Sepharose (Pharmacia) cation-exchange chromatography (column dimensions: 2.6×20 cm) at 4° C. The resin was washed with 5 column volumes of Buffer A, followed by 5 column volumes of Buffer A containing 50 mM NaCl. Bound JNK3 was eluted with a 7.5 column volume linear gradient of 50-300 mM NaCl. JNK3 eluted between 150-200 mM NaCl.
Five mg of JNK3 was diluted to 0.5 mg/ml in 50 mM HEPES buffer, pH 7.5, containing 100 mM NaCl, 5 mM DTT, 20 mM MgCl2 and 1 mM ATP. GST-MKK7(DD) was added at a molar ratio of 1:2.5 GST-MKK7:JNK3. After incubation for 30 minutes at 25° C., the reaction mixture was concentrated 5-fold by ultrafiltration in a Centriprep-30 (Amicon, Beverly, Mass.), diluted to 10 ml and an additional 1 mM ATP added. This procedure was repeated three times to remove ADP and replenish ATP. The final addition of ATP was 5 mM and the mixture incubated overnight at 4° C.
The activated JNK3/GST-MKK7(DD) reaction mixture was exchanged into 50 mM HEPES buffer, pH 7.5, containing 5 mM DTT and 5% glycerol (w/v) by dialysis or ultrafiltration. The reaction mixture was adjusted to 1.1 M potassium phosphate, pH 7.5, and purified by hydrophobic interaction chromatography (at 25° C.) using a Rainin Hydropore column. […] Activated JNK3 (i.e. doubly phosphorylated JNK3) was stored at −70° C. at 0.25-1 mg/ml.
Compounds were assayed for the inhibition of JNK3 by a spectrophotometric coupled-enzyme assay. In this assay, a fixed concentration of activated JNK3 (10 nM) was incubated with various concentrations of a potential inhibitor dissolved in DMSO for 10 minutes at 30° C. in a buffer containing 0.1 M HEPES buffer, pH 7.5, containing 10 mM MgCl2, 2.5 mM phosphoenolpyruvate, 200 μM NADH, 150 μg/mL pyruvate kinase, 50 μg/mL lactate dehydrogenase, and 200 μM EGF receptor peptide. […]

T1 sequence (P53779 40-402): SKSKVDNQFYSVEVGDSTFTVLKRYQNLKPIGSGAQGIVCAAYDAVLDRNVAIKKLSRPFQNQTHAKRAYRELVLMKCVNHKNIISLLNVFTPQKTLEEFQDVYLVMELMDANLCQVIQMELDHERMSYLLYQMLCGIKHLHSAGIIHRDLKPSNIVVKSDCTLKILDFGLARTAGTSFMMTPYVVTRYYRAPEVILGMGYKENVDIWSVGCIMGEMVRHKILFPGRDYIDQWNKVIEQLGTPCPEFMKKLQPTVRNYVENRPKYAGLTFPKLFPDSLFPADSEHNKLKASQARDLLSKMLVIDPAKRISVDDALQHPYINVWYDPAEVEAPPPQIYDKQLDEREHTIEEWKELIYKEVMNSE

Consider `CCOc1sc(-c2ccnc(Nc3ccccc3)n2)c(-c2ccc(C)cc2)c1C#N` [IIa-15, 2-Ethoxy-5-(2-phenylamino-pyrimidin-4-yl)-4-p-tolyl-thiophene-3-carbonitrile], for which the Ki is below 0.1 µM.

Consider `CSc1sc(-c2ccnc(Nc3ccccc3)n2)c(-c2ccc(C)cc2)c1C#N` [IIa-14, 2-Methylsulfanyl-5-(2-phenylamino-pyrimidin-4-yl)-4-p-tolyl-thiophene-3-carbonitrile], for which the Ki is below 0.1 µM.

As for `CCOc1sc(-c2ccnc(Nc3ccccc3)n2)c(-c2ccc(Cl)cc2)c1C#N` [IIa-11, 2-Ethoxy-5-(2-phenylamino-pyrimidin-4-yl)-4-(4-chloro-phenyl)-thiophene-3-carbonitrile], the Ki was below 0.1 µM.

Turning to `CSc1sc(-c2ccnc(Nc3ccccc3)n2)c(-c2ccc(Cl)cc2)c1C#N` [IIa-10, 2-Methylsulfanyl-5-(2-phenylamino-pyrimidin-4-yl)-4-(4-chloro-phenyl)-thiophene-3-carbonitrile], the Ki is below 0.1 µM.

The record behind these values is patent US6642227B2, “Inhibitors of c-Jun N-terminal kinases (JNK) and other protein kinases” (Vertex Pharmaceuticals Incorporated, priority 2001, dated 2003).
